Experimental data reported in patent US20200163897A1, “METHODS OF TREATING LIVER DISEASES ASSOCIATED WITH PORTAL TRACT OR PERIPORTAL INFLAMMATION” (The Regents of the University of California, priority 2017, published 2020).

Assays:
[1] = test system: obese children who had steatosis; conditions: after vitamin E 400-1000 IU/day for 4-10 months, cited from earlier work
tissue transglutaminase = target: T1, tissue transglutaminase (Rattus norvegicus, UniProt Q9WVJ6); conditions: via inhibition of tissue transglutaminase; cited from earlier work
T1 construct: host or cells: liver of CCl4-treated animals (in vivo)
T1 sequence (Q9WVJ6 1-686): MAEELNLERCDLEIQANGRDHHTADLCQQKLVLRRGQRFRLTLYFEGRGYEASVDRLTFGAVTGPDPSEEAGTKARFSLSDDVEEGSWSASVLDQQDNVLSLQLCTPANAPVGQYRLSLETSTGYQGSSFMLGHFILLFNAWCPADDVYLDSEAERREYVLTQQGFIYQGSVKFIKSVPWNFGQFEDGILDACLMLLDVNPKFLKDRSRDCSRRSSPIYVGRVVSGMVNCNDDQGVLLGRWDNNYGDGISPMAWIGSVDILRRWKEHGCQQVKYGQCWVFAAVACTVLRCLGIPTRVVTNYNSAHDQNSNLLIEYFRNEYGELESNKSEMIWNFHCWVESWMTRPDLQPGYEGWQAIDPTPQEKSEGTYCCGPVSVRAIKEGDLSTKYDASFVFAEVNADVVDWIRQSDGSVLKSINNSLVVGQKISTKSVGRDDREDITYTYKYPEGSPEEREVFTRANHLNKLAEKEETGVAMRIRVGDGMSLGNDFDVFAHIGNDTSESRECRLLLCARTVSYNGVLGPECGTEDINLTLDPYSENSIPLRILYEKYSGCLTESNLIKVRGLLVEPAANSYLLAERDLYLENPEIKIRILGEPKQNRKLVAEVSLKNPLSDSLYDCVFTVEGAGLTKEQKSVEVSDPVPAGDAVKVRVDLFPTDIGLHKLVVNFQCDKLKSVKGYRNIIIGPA

[2] = test system: obese individuals with NASH; conditions: 4-12 weeks, no reported change in body mass index; cited from earlier work
children with NASH = conditions: cited from earlier work
leukocyte cystine = conditions: delivery to the small intestine; cited from earlier work
in vivo = assay: in vivo; set-up: species or system rats; conditions: rat, 20 mg/kg
From the text: Samples were taken from the portal vein (PV) and jugular vena cava (JVC) in rats that were either pre-treated with or naïve to cysteamine therapy.
The portal vein delivers blood, and therefore drug, directly to the liver where it diffuses into the periportal region. The concentration of drug in the periportal region is therefore at a maximum level and is higher than the drug concentration in the hepatic lobular region (which drains into the hepatic central veins and then into the JVC). This is possible because as blood, and therefore drug, traverses through the hepatic lobule away from the portal vein its contents will undergo some degree of first-pass metabolism. It is postulated here, that patients with type 2 pediatric NASH, receiving a greater drug exposure at the site of maximal disease (i.e., periportal region; recall Type 2 NASH is characterized by portal inflammation), are more likely to respond to drug therapy than children with type 1 NASH.

[3] = test system: acetaminophen-induced hepatocellular injury; conditions: mice and humans; cited from earlier work

Molecule: vitamin E
- mean AST levels ([1]; decreased from 104±61 IU/L, P<0.002): 33±11 IU/L
- mean ALT levels ([1]; decreased from 175±106 IU/L, P<0.01): 40±26 IU/L

Molecule: NCCSSCCN [Cystamine]
- liver fibrosis induced by carbon tetrachloride (tissue transglutaminase): ameliorate liver fibrosis

Molecule: CC(=O)N[C@@H](CS)C(=O)O [N-acetylcysteine]
- aminotransferase levels and gamma-GT [2]: improvement

Molecule: NCCS [cysteamine]
- blood liver inflammation markers (ALT, AST, GGT) (children with NASH; children with NASH, 6 and 12 months treatment): statistically significant improvement
- primary endpoint of improved histology (children with NASH; placebo controlled 12 month study group): not achieved
- chance of histological improvement compared with the placebo group (children with NASH; post-hoc analysis, children <65 kg body weight, placebo controlled 12 month study): 4 fold
- decrease in leukocyte cystine, time after treatment (leukocyte cystine): within an hour
- Tmax (in vivo): 5 to 10 min
- prevention of acetaminophen-induced hepatocellular injury [3]: effective
